Test results taken from PMC4327562, “Emergence of terpene cyclization in Artemisia annua” (Nature Communications, 2015).

Columns and labels:
[1] = biological target: T1, amorpha-4,11-diene synthase (ADS) (Artemisia annua, UniProt Q9AR04); test: GC-MS product analysis and malachite green assay; format: biochemical; conditions: 5 mM MgCl2, pH 7.0; numbering likely that of A. annua BFS
T1 construct: gene AMS1; recombinant

[2] = biological target: T2, (E)-β-farnesene synthase (BFS), A. annua BFS (Artemisia annua, UniProt Q9FXY7, Y305L/Y433A, form not given); conditions: 5 mM MgCl2, pH 7.0, 30 °C, inorganic pyrophosphatase coupled
T2 construct: gene CASC125
From the text: (§1) malachite green assay, steady-state kinetics on (E)-β-farnesene synthase (BFS), A. annua BFS

[3] = biological target: T3, (E)-β-farnesene synthase (BFS), A. annua BFS (Artemisia annua, UniProt Q9FXY7, Y423L/V470G, form not given); conditions: 5 mM MgCl2, pH 7.0, 30 °C, inorganic pyrophosphatase coupled
T3 construct: gene CASC125
From the text: as §1

[4] = biological target: T4, (E)-β-farnesene synthase (BFS), A. annua BFS (Artemisia annua, UniProt Q9FXY7); conditions: 5 mM MgCl2, pH 7.0, 30 °C, inorganic pyrophosphatase coupled
T4 construct: gene CASC125
From the text: as §1

[5] = biological target: T5, (E)-β-farnesene synthase (BFS), A. annua BFS (Artemisia annua, UniProt Q9FXY7, Y433A/V470G, form not given); conditions: 5 mM MgCl2, pH 7.0, 30 °C, inorganic pyrophosphatase coupled
T5 construct: gene CASC125
From the text: as §1

T2 sequence (Q9FXY7 whole entry Y305L/Y433A, form open): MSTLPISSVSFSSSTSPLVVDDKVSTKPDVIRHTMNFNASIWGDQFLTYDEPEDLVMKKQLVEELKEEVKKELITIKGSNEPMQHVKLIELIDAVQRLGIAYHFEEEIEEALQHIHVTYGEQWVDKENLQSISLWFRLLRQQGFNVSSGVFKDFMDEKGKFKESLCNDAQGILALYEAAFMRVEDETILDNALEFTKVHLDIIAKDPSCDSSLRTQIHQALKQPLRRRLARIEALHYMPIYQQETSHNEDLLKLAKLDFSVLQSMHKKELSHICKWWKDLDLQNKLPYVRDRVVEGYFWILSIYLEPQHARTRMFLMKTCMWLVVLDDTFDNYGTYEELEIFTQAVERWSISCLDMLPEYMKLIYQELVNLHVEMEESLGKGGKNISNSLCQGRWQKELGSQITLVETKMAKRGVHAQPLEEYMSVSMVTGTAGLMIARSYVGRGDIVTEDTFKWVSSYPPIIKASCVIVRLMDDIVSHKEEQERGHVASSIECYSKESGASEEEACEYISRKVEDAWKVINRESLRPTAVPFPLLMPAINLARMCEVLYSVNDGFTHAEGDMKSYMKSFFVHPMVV
T5 sequence (Q9FXY7 whole entry Y433A/V470G, form open): as the sequence (Q9FXY7 whole entry Y305L/Y433A, form open) above, with L305Y, V470G counted along it
T1 sequence (Q9AR04 whole entry): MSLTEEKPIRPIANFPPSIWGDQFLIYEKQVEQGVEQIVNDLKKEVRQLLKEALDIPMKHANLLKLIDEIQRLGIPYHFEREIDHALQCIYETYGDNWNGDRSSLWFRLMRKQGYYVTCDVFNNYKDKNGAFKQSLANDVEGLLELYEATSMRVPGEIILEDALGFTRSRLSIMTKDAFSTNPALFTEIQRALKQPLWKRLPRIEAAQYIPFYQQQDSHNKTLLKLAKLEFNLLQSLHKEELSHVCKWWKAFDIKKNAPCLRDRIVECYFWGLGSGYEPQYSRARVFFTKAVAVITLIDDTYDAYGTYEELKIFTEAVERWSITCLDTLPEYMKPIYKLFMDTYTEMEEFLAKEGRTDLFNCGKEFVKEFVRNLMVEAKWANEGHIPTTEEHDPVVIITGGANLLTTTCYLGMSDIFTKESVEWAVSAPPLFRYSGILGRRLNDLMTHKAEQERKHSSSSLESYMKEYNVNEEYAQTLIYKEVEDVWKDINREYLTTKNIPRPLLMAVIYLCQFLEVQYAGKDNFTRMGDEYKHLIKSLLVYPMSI
T3 sequence (Q9FXY7 whole entry Y423L/V470G, form open): as the sequence (Q9FXY7 whole entry Y305L/Y433A, form open) above, with L305Y, Y423L, A433Y, V470G counted along it
T4 sequence (Q9FXY7 whole entry): as the sequence (Q9FXY7 whole entry Y305L/Y433A, form open) above, with L305Y, A433Y counted along it

Km [2] [µM]	Km [3] [µM]	Km [4] [µM]	Km [5] [µM]	Structure (SMILES)	GC-MS product analysis and malachite green assay [1]
–	–	–	–	CC(C)=CCC/C(C)=C/CC/C(C)=C/COP(=O)(O)OP(=O)(O)O [FPP, farnesyl pyrophosphate]	incorporating the L402Y mutation into ADS induced a broadening of cyclization products
5.22	5.99	10.6	4.27	CC(C)=CCC/C(C)=C/CC/C(C)=C/CO[P@@](=O)(O)OP(=O)(O)O (stereo in doubt) [FPP, farnesyl pyrophosphate]	–
